Reference: ChEMBL document CHEMBL2157968, “Novel multipotent phenylthiazole-tacrine hybrids for the inhibition of cholinesterase activity, β-amyloid aggregation and Ca²⁺ overload” (Bioorg Med Chem, 2012)
Calls of active or inactive are those of the source. The calls are words filed in the database; no cut-off is given here.

Tests used:
Acetylcholinesterase = Acetylcholinesterase (Electrophorus electricus, UniProt O42275)
Description: Inhibition of electric eel AChE using acetylthiocholine chloride substrate incubated for 5 mins before substrate addition measured at 3 min interval by Ellman method

Cholinesterase = Cholinesterase (Equus caballus, UniProt P81908)
Description: Inhibition of equine serum BuChE using butyrylthiocholine chloride substrate incubated for 5 mins before substrate addition measured at 3 min interval by Ellman method

[1] = target: Acetylcholinesterase (Electrophorus electricus) (UniProt O42275); assay: Mixed type inhibition of electric eel AChE using acetylthiocholine chloride substrate incubated for 5 mins before substrate addition measured at 3 min interval by Lineweaver-Burk plot analysis
Cerebral cortex neuron = assay: Inhibition of KCl-induced Ca2+ overload in Sprague-Dawley rat primary cortical neurons assessed as reduction in F340/F380 fluorescence ratio at 1 uM by Fura-2/AM-based fluorescence assay; assay type: functional, cell-based

Sequence of Acetylcholinesterase (O42275 whole entry): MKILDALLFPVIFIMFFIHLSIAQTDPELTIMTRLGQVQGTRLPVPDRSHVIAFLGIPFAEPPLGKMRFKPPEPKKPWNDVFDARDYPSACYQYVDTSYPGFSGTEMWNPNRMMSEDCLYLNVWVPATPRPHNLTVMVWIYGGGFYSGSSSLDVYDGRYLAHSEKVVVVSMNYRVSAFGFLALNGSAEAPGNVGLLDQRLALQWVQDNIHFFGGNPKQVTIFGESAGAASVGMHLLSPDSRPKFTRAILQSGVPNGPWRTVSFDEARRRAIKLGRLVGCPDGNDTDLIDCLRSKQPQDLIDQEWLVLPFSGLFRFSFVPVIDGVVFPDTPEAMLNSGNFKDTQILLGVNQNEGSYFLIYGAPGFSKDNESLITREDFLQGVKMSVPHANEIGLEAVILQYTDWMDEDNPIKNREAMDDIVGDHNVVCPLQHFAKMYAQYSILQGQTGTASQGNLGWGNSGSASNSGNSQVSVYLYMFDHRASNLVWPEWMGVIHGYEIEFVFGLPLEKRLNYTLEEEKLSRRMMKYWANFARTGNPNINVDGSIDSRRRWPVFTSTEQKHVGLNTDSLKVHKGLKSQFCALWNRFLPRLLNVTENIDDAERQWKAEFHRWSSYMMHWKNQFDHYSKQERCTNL
Sequence of Cholinesterase (P81908 whole entry): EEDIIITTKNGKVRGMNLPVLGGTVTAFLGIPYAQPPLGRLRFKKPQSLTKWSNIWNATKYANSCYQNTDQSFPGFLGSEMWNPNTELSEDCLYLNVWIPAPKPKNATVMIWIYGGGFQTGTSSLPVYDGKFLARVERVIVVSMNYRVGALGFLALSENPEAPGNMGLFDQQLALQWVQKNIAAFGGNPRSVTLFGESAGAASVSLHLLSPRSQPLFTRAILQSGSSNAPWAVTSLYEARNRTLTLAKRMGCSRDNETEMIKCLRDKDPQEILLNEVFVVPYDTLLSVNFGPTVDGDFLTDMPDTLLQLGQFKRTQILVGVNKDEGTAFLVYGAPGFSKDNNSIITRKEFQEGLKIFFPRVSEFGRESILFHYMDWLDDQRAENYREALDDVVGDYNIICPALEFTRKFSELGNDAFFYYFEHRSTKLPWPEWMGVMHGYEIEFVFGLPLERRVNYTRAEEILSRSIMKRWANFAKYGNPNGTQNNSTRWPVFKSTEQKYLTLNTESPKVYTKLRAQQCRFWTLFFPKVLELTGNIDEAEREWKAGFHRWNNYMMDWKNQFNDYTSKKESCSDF
Sequence of Acetylcholinesterase (Electrophorus electricus) (O42275 24-633 limits assumed): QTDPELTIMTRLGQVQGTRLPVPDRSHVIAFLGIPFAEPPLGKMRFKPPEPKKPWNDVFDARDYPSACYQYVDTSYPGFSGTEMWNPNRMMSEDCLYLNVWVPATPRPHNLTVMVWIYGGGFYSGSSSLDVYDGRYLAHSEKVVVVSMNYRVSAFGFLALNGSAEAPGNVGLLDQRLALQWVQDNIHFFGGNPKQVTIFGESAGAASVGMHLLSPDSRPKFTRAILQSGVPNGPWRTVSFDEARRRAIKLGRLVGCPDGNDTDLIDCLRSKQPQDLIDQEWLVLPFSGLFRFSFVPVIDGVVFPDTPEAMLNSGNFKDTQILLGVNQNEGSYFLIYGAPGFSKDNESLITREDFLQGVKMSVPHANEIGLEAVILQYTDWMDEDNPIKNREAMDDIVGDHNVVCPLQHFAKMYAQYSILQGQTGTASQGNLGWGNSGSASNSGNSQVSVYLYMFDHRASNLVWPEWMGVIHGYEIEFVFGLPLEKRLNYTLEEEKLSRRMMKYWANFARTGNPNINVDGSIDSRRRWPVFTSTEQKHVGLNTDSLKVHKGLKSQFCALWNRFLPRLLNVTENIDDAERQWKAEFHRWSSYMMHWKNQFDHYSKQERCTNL

| SMILES | IC50 (Acetylcholinesterase) [nM] | IC50 (Cholinesterase) [nM] | inhibition [1] | inhibition (Cerebral cortex neuron) |
| --- | --- | --- | --- | --- |
| CCN(CCCNc1c2c(nc3ccccc13)CCCC2)CC(=O)Nc1nc(-c2ccc(OC)cc2)cs1 | 1380 | 275 |  |  |
| CCN(CCCNc1c2c(nc3ccccc13)CCCC2)CC(=O)Nc1nc(-c2ccccc2)cs1 | 105 | 0.0447 |  |  |
| O=C(CCC(=O)Nc1nc2c(s1)CCCC2)NCCCCNc1c2c(nc3ccccc13)CCCC2 | 1260 | 363 |  |  |
| CCN(CCCCCCNc1c2c(nc3ccccc13)CCCC2)CC(=O)Nc1nc(-c2ccccc2)cs1 | 81.3 | 468 |  |  |
| O=C(CCC(=O)Nc1nc(-c2ccccc2)cs1)NCCCCCCNc1c2c(nc3ccccc13)CCCC2 | 72.4 | 0.355 | Active |  |
| CCN(CCCCNc1c2c(nc3ccccc13)CCCC2)CCC(=O)Nc1nc(-c2ccc(Cl)cc2)cs1 | 120 | 45.7 |  |  |
| CCN(CCCNc1c2c(nc3ccccc13)CCCC2)CCC(=O)Nc1nc(-c2ccc(Cl)cc2)cs1 | 1200 | 4.17 |  |  |
| CCN(CCCCNc1c2c(nc3ccccc13)CCCC2)CCC(=O)Nc1nc(-c2ccc(OC)cc2)cs1 | 288 | 6.61 |  |  |
| CCN(CCCCNc1c2c(nc3ccccc13)CCCC2)CCC(=O)Nc1nc(-c2ccccc2)cs1 | 110 | 18.2 |  |  |
| CCN(CCCNc1c2c(nc3ccccc13)CCCC2)CCC(=O)Nc1nc(-c2ccc(OC)cc2)cs1 | 97.7 | 0.479 |  |  |
| CCN(CCCCNc1c2c(nc3ccccc13)CCCC2)CC(=O)Nc1nc(-c2ccccc2)cs1 | 158 | 14.8 |  |  |
| CCN(CCCCNc1c2c(nc3ccccc13)CCCC2)CC(=O)Nc1nc(-c2ccc(OC)cc2)cs1 | 1660 | 20.4 |  |  |
| CCN(CCCNc1c2c(nc3ccccc13)CCCC2)CCC(=O)Nc1nc(-c2ccccc2)cs1 | 324 | 6.03 |  |  |
| O=C(CCCC(=O)Nc1nc(-c2ccccc2)cs1)NCCCNc1c2c(nc3ccccc13)CCCC2 | 380 | 1780 |  |  |
| O=C(CCC(=O)Nc1nc(-c2ccccc2)cs1)NCCCCNc1c2c(nc3ccccc13)CCCC2 | 490 | 0.603 |  |  |
| O=C(CCCC(=O)Nc1nc(-c2ccccc2)cs1)NCCCCNc1c2c(nc3ccccc13)CCCC2 | 282 | 0.55 |  |  |
| O=C(CCC(=O)Nc1nc(-c2ccc(Cl)cc2)cs1)NCCCCNc1c2c(nc3ccccc13)CCCC2 | 1350 | 16.6 |  |  |
| CCN(CCCCNc1c2c(nc3ccccc13)CCCC2)CC(=O)Nc1nc(-c2ccc(Cl)cc2)cs1 | 1620 | 77.6 |  |  |
| CCN(CCCCCCNc1c2c(nc3ccccc13)CCCC2)CC(=O)Nc1nc(-c2ccc(OC)cc2)cs1 | 158 | 589 |  | inactive |
